Assay results reported in the supplement of paper PMC10331698.
± gives the standard deviation of the averaged measurements.

Tests used:
Assay in all cases: level (log10 ratio to DMSO vehicle control); higher = higher biomarker level / cell amount than vehicle control
Conditions in all cases: in DMSO
[1] = compound: CCN(CCO)S(=O)(=O)C(F)(F)C(F)(F)C(F)(F)C(F)(F)C(F)(F)C(F)(F)C(F)(F)C(F)(F)F [N-Ethyl-N-(2-hydroxyethyl)perfluorooctanesulfonamide]
Method: (§1)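 BioMAP Diversity Plus panel of 12 human primary cell co-culture systems (3C, 4H, LPS, SAg, BT, BF4T, BE3C, CASM3C, HDF3CGF, KF3CT, MyoF, Mphg). Compounds were added 1 h before stimulation and left for 24 h (MyoF 48 h; BT 72 h for soluble read-outs or 6 d for IgG). Biomarkers were read by ELISA, cytotoxicity by SRB, PBMC viability and proliferation by Alamar Blue. Each well value was divided by the mean of 8 DMSO control wells on the same plate and log10 transformed; duplicate blinded samples were tested at 4 concentrations.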

[2] = compound: OCCC(F)(F)C(F)(F)C(F)(F)C(F)(F)C(F)(F)C(F)(F)F [6:2 Fluorotelomer alcohol]
Method: as §1

[3] = compound: NCC(F)(F)C(F)(F)C(F)(F)C(F)(F)C(F)(F)C(F)(F)C(F)(F)F [1H,1H-Perfluorooctylamine]
Method: as §1

[4] = compound: FC(F)(F)C(F)(F)C(F)(F)C(F)(F)C(F)(F)CCI [1-Iodo-1H,1H,2H,2H-perfluoroheptane]
Method: as §1

[5] = compound: COC(=O)CCC(F)(F)C(F)(F)C(F)(F)C(F)(F)F [Methyl 2H,2H,3H,3H-perfluoroheptanoate]
Method: as §1

[6] = compound: O=C(O)C(F)(F)C(F)(F)C(F)(F)C(F)(F)C(F)(F)C(F)(F)C(F)(F)C(F)F [9-H-Perfluorononanoic acid]
Method: as §1

[7] = compound: FC(F)(F)C(F)(F)C(F)(F)C(F)(F)C(F)(F)C(F)(F)C(F)(F)C(F)(F)CCS [2-(Perfluorooctyl)ethanthiol]
Method: as §1

Row | Test System | level (log10) ([1]; 6700 nM) | level (log10) ([1]; 20000 nM) | level (log10) ([2]; 6700 nM) | level (log10) ([2]; 20000 nM) | level (log10) ([3]; 6700 nM) | level (log10) ([3]; 20000 nM) | level (log10) ([3]; 60000 nM) | level (log10) ([4]; 6700 nM) | level (log10) ([4]; 20000 nM) | level (log10) ([4]; 60000 nM) | level (log10) ([5]; 6700 nM) | level (log10) ([5]; 20000 nM) | level (log10) ([5]; 60000 nM) | level (log10) ([6]; 6700 nM) | level (log10) ([6]; 20000 nM) | level (log10) ([6]; 60000 nM) | level (log10) ([7]; 6700 nM) | level (log10) ([7]; 20000 nM)
1 | CASM3C:CXCL9/MIG | -0.0675 ± 0.005 | -0.166 ± 0.073 | -0.011 ± 0.025 | -0.0165 ± 0.0035 | -0.014 ± 0.021 | -0.0245 ± 0.0021 | 0.006 ± 0.04 | -0.007 ± 0.0042 | -0.0025 ± 0.0021 | 0.008 ± 0.011 | -0.006 ± 0.0085 | 0.0035 ± 0.0035 | 0.015 ± 0.0028 | -0.024 ± 0.017 | -0.0155 ± 0.0092 | 0.0205 ± 0.00071 | -0.0025 ± 0.023 | 0.0395 ± 0.0064
2 | lMphg:IL-1alpha | -0.018 ± 0.054 | -0.0235 ± 0.018 | 0.0025 ± 0.022 | 0.019 ± 0.0085 | -0.005 ± 0.016 | -0.0045 ± 0.013 | 0.0045 ± 0.0092 | 0.031 ± 0.021 | -0.01 ± 0.018 | 0.0305 ± 0.016 | -0.0215 ± 0.056 | -0.0265 ± 0.035 | 0.029 ± 0.082 | -0.002 ± 0.017 | 0.0105 ± 0.0092 | 0.042 ± 0.057 | -0.033 ± 0.078 | -0.0355 ± 0.07
3 | KF3CT:TIMP-2 | 0.0855 ± 0.037 | 0.04 ± 0.0028 | 0.0005 ± 0.016 | 0.0015 ± 0.015 | -0.013 | -0.01 ± 0.018 | -0.017 ± 0.013 | -0.012 ± 0.035 | -0.03 ± 0.028 | -0.0245 ± 0.03 | -0.004 ± 0.017 | -0.012 ± 0.011 | -0.0125 ± 0.043 | -0.0055 ± 0.03 | -0.01 ± 0.014 | 0.016 ± 0.017 | -0.025 ± 0.02 | -0.021 ± 0.02
4 | BE3C:MMP-1 | 0.255 ± 0.03 | 0.328 ± 0.0071 | -0.0245 ± 0.036 | -0.0195 ± 0.028 | -0.0305 ± 0.042 | -0.0235 ± 0.026 | -0.001 ± 0.04 | 0.004 ± 0.023 | 0.074 ± 0.03 | 0.162 ± 0.0078 | 0.0035 ± 0.052 | 0.004 ± 0.045 | 0.03 ± 0.1 | 0.043 ± 0.045 | 0.061 ± 0.0028 | 0.204 ± 0.047 | -0.0055 ± 0.022 | -0.032 ± 0.031
5 | MyoF:PAI-I | -0.0065 ± 0.0064 | -0.0085 ± 0.018 | 0.002 ± 0.0028 | 0.007 ± 0.0042 | 0 ± 0.016 | -0.002 ± 0.014 | -0.005 ± 0.013 | -0.0005 ± 0.00071 | 0.0005 ± 0.00071 | -0.002 ± 0.0042 | -0.003 | 0.0055 ± 0.0078 | 0.003 ± 0.014 | -0.0075 ± 0.011 | 0.004 ± 0.0042 | -0.0025 ± 0.0092 | -0.001 ± 0.0042 | -0.0005 ± 0.012
6 | MyoF:TIMP-1 | -0.112 ± 0.011 | -0.0885 ± 0.0092 | 0.002 ± 0.04 | 0.0085 ± 0.047 | 0.0045 ± 0.0092 | 0.01 ± 0.025 | -0.0005 ± 0.0021 | 0.0095 ± 0.0064 | -0.009 ± 0.0028 | -0.038 ± 0.025 | -0.0585 ± 0.047 | -0.02 ± 0.035 | 0.01 ± 0.014 | 0.0495 ± 0.044 | 0.0665 ± 0.019 | 0.117 ± 0.037 | -0.033 ± 0.014 | -0.0215 ± 0.005
7 | BE3C:Keratin 8/18 | 0 ± 0.014 | -0.007 ± 0.014 | -0.0095 ± 0.0064 | -0.0115 ± 0.00071 | -0.009 ± 0.0071 | -0.024 ± 0.0099 | -0.0005 ± 0.0078 | -0.019 ± 0.02 | -0.009 ± 0.034 | -0.02 ± 0.0071 | -0.0225 ± 0.005 | 0.0015 ± 0.015 | -0.0165 ± 0.018 | -0.006 ± 0.0085 | 0.005 ± 0.0042 | -0.012 ± 0.018 | -0.0025 ± 0.0021 | -0.009 ± 0.0014
8 | CASM3C:CXCL8/IL-8 | -0.0075 ± 0.016 | -0.024 ± 0.0085 | 0.019 ± 0.0014 | 0.0195 ± 0.015 | -0.005 ± 0.0057 | -0.022 ± 0.013 | 0.005 ± 0.027 | 0.002 ± 0.0028 | -0.0025 ± 0.0035 | 0.003 ± 0.018 | -0.0135 ± 0.011 | -0.0115 ± 0.005 | -0.0085 ± 0.013 | -0.002 ± 0.0057 | -0.0045 ± 0.00071 | 0.0035 ± 0.0035 | 0.021 ± 0.047 | 0.034 ± 0.037
9 | MyoF:Collagen III | -0.0045 ± 0.022 | -0.228 ± 0.17 | 0.003 ± 0.016 | -0.005 ± 0.0014 | -0.007 ± 0.0057 | 0.003 ± 0.014 | 0.01 | 0.0085 ± 0.029 | 0.0185 ± 0.0092 | 0.041 ± 0.013 | -0.0085 ± 0.0092 | -0.007 ± 0.0014 | -0.015 ± 0.0057 | -0.002 ± 0.0085 | -0.003 ± 0.0042 | -0.026 ± 0.018 | -0.0105 ± 0.015 | -0.0345 ± 0.018
10 | lMphg:CD106/VCAM-1 | -0.037 ± 0.03 | -0.0435 ± 0.035 | -0.016 ± 0.0028 | -0.0155 ± 0.013 | -0.005 ± 0.0014 | -0.003 ± 0.014 | -0.0165 ± 0.005 | 0.005 | -0.004 ± 0.0042 | -0.017 ± 0.011 | -0.0055 ± 0.012 | 0.009 ± 0.0057 | 0.0055 ± 0.037 | -0.008 ± 0.018 | 0.0185 ± 0.00071 | 0.0075 ± 0.023 | -0.0055 ± 0.0064 | -0.0365 ± 0.011
11 | MyoF:Collagen IV | -0.0665 ± 0.013 | 0.078 ± 0.035 | -0.0005 ± 0.013 | -0.002 ± 0.013 | -0.0035 ± 0.018 | -0.009 ± 0.016 | -0.0055 ± 0.0035 | 0.03 ± 0.0071 | 0.0715 ± 0.0035 | 0.072 ± 0.028 | -0.0335 ± 0.03 | -0.0285 ± 0.021 | -0.0115 ± 0.029 | 0.039 ± 0.037 | 0.0365 ± 0.018 | 0.082 ± 0.03 | -0.009 ± 0.09 | 0.012 ± 0.05
12 | lMphg:CD62E/E-Selectin | 0.0935 ± 0.0078 | 0.14 ± 0.0099 | -0.0545 ± 0.011 | 0.0005 ± 0.043 | 0.0195 ± 0.023 | 0.0085 ± 0.015 | 0.013 ± 0.03 | -0.021 ± 0.067 | -0.0215 ± 0.018 | -0.028 ± 0.0028 | -0.004 ± 0.0028 | -0.0245 ± 0.016 | -0.0075 ± 0.018 | -0.005 ± 0.037 | 0.0085 ± 0.035 | 0.0585 ± 0.021 | -0.013 ± 0.013 | -0.0295 ± 0.011
13 | MyoF:Decorin | -0.0095 ± 0.016 | -0.085 ± 0.028 | -0.0055 ± 0.0021 | 0.0085 ± 0.011 | -0.016 ± 0.011 | -0.025 ± 0.017 | -0.027 ± 0.0099 | -0.012 ± 0.0028 | -0.022 ± 0.023 | -0.007 ± 0.034 | -0.001 ± 0.013 | 0.015 ± 0.0028 | 0.0175 ± 0.052 | 0.0315 ± 0.0035 | 0.051 ± 0.0071 | 0.093 ± 0.016 | -0.0145 ± 0.018 | -0.0105 ± 0.033
14 | BE3C:uPA | -0.0025 ± 0.022 | -0.018 ± 0.031 | -0.004 | -0.012 ± 0.0028 | -0.011 ± 0.011 | -0.0135 ± 0.0021 | -0.002 ± 0.014 | 0.013 ± 0.011 | -0.0005 ± 0.019 | -0.0025 ± 0.033 | -0.013 ± 0.042 | -0.0155 ± 0.018 | -0.0155 ± 0.012 | 0.0085 ± 0.0021 | 0.003 ± 0.014 | -0.002 ± 0.0028 | 0.0045 ± 0.00071 | -0.0085 ± 0.016
15 | MyoF:SRB | -0.0265 ± 0.00071 | -0.175 ± 0.07 | -0.002 ± 0.0085 | 0 ± 0.0028 | 0.0035 ± 0.0021 | -0.002 ± 0.0057 | 0.0005 ± 0.005 | 0.001 ± 0.0099 | 0.0085 ± 0.015 | 0.0085 ± 0.025 | -0.004 ± 0.0028 | 0.0065 ± 0.0035 | 0.0065 ± 0.0064 | 0.015 ± 0.0042 | 0.003 | -0.0105 ± 0.0064 | -0.0005 ± 0.0092 | 0.0025 ± 0.0021
16 | MyoF:bFGF | -0.01 ± 0.016 | -0.025 ± 0.0042 | 0.0015 ± 0.005 | -0.0085 ± 0.0035 | 0.0095 ± 0.028 | 0 ± 0.014 | 0.019 ± 0.0099 | 0.0005 ± 0.0078 | 0.005 ± 0.011 | 0.046 ± 0.013 | -0.0125 ± 0.012 | -0.008 ± 0.013 | -0.0075 ± 0.019 | -0.0025 ± 0.021 | 0.0015 ± 0.012 | -0.0055 ± 0.018 | -0.0075 ± 0.019 | -0.017 ± 0.0014
